In US20090023186A1, “USE OF VALPROIC ACID FOR ENHANCING PRODUCTION OF RECOMBINANT PROTEINS IN MAMMALIAN CELLS” (EXCELLGENE SA, priority 2007, published 2009):

Test system: HEK293E cells
Assay: Influence of temperature on IgG batch titer and comparison with sodium butyrate (Example 2)
Format: cell-based, Human
Details: day 5 after transfection
Experimental: No. 14571C-[…]; Lot No. 6A0093; SAFC Biosciences, Lenexa, Kans., USA, “Ex-Cell” medium; note: “Ex-Cell” medium-as used herein-refers to a medium comprising 4 mmol/l L-glutamine) in a 50-ml filter tube each (TPP AG, Trasadingen, Switzerland; Cat. No. 87050, Lot 20050174). In a separate set, 10 million suspension-adapted CHO DG44 cells were resuspended in 0.5 ml of ProCHO5 serum-free medium with 4 mmol/[…] hypoxanthine and 0.194 g/l thymidine (BioWhittaker (Lonza), Belgium; Cat. No. BE12-[…]; Lot No. 7 MB0040; “ProCHO5” medium; note: “ProCHO5” medium-as used herein-refers to a medium comprising 4 mmol/[…] hypoxanthine and 0.194 g/l thymidine) in a 50-ml filter tube each (TPP AG, Trasadingen, Switzerland; Cat. No. 87050, Lot 20050174). Then 12.5 μg plasmid DNA at a concentration of 1 μg/μl was added in each tube with the following composition 50% (6.25 μg) p-LC (SEQ ID NO: 1) 50% (6.25 μg) p-HC (SEQ ID NO: 3). Plasmid p-LC comprises the genetic information for the production of the light chain of an IgG antibody, plasmid p-HC comprises the genetic information for the production of the heavy chain of an IgG antibody. The particular vector constructs used in the present invention can also be obtained from the inventors. The inventors can be contacted via e-mail at […]. Moreover, commercial services do exist that produce any desired nucleotide sequence even comprising several kilobase pairs including complete expression cassettes in plasmid backgrounds (e.g., Invitrogen, Carlsbad, USA; Geneart, Germany.) Thus, providing the genetic sequence information of the plasmids should enable one of ordinary skill in the art to order the plasmids of the present invention at one of the commercial services listed. After shortly mixing the DNA with the cells by gentle shaking, 25 μg of 25-kd linear polyethyleneimine (“PEI”; Polysciences, Eppelheim, Germany; [2]) were added at a concentration of 1 μg/μl to each of the tubes. After shortly mixing by gentle shaking, the filter tubes containing the cells together with the DNA and PEI were transferred into an orbital shaker (Kühner Shaker Cabinet ISF-4-W, “Kühner shaker”, Kühner AG, Birsfelden, Switzerland), and the cells were incubated for 4 hours at 37° C. in a 5% CO2 atmosphere under shaking at 180 rpm. After that time, 4.5 ml of Ex-Cell medium were added to each of the filter tubes containing HEK 293 cells and 4.5 ml of Pro-CHO5 were added to each of the filter tubes containing CHO DG44 cells. […] No. […] Sigma-Aldrich Chemie GmbH, Industriestrasse 25, CH-9471 Buchs SG) was added to the corresponding tubes at the corresponding final concentrations. The cells then were returned into the Kühner shaker. Half the tubes were incubated at 37° C. in a 5% CO2 atmosphere under shaking at 180 rpm, the other half was incubated at 31° C. […] The ELISA was performed as published in prior art. In short, Goat anti-human kappa light chain IgG (Biosource) was used for coating the ELISA-plates, and with AP-conjugated goat anti-human gamma chain IgG (Biosource) the synthesized IgG1 was detected. NPP was used as a substrate for the alkaline phosphatase. Absorption was measured at 405 nm against 490 nm using a microplate reader (SPECTRAmaxTM340; Molecular Devices, Palo Alto, Calif., USA).

[1] = 3.8 mmol/l VPA, relative to control = 1

Structure (SMILES): CCCC(CCC)C(=O)O [VPA, valproic acid]
- Batch titer increase at 31° C. [1]: 5.3 ± 0.4
- Batch titer increase at 37° C. [1]: 5.3 ± 0.5
- performance compared with sodium butyrate (batch titer increase) (31° C. and 37° C.): slightly better performance than sodium butyrate
